# According to patent publication US20140255432A1, “SILVESTROL, SILVESTROL ANALOGS AND USES THEREOF” (priority 2011, published 2014):
# How the values were obtained:
# [1] = system: lymphoma cell lines; experiment: IC50 against lymphoma cell lines; assay type: cell-based; details: Homo sapiens
# Source text: These include EBV^+ lymphoblastoid cell lines (LCL) derived from SCID mice engrafted with peripheral blood mononuclear cells (hu-PBL-SCID) from EBV-positive donors. (FIG. 1). This hu-PBL-SCID model is a spontaneous, preclinical model of EBV-driven lymphomagenesis that can be utilized to study the anti-tumor and immune surveillance activity of EBV-specific memory T cells. In vitro, the anti-proliferative effect of silvestrol against EBV+ LCLs (FIG. 2) is preceded by a loss of EBV latent membrane protein 1 (LMP1). In FIG. 2A, relative proliferation was determined. MTS assays were performed on three donors treated with silvestrol (2, 5, or 10 nM) or DMSO (control). The assays were performed on days 1, 3, and 5. In FIG. 2B, relative growth was determined. Viability assays were performed on cells from three donors treated with silvestrol (2, 5, or 10 nM) or DMSO (control). The assays were performed on days 1, 3, and 5. Viability was assessed by annexin/propidium iodide flow cytometry.
# [2] = system: EBV-positive lymphoblastoid cell lines (LCL); experiment: MTS proliferation assay; assay type: cell-based, human
# Procedure: MTS proliferation assays were performed according the CellTiter 96™ Aqueous Cell Proliferation Assay Technical Bulletin (Promega, Madison, Wis.). 5×10^4 cells were plated in each well of a 96-well plate at 37° C. and assayed for proliferation at 24, 72, and 120 hr.
# The direct anti-tumor activity of silvestrol in leukemia and lymphoma models has been document (Hwang 2004; Bordeleau 2008; Cencic 2009; Lucas 2009 Alinari 2011; Saradhi 2011) as well as silvestrol's increased cytotoxicity to malignant B cells compared to normal blood lymphocytes (Lucas 2009). However, activity of silvestrol has not previously been described in spontaneous EBV-transformed cell lines. Silvestrol's activity in fully transformed EBV-positive LCL derived from tumors of SCID mice engrafted with PBMC from EBV-seropositive donors was observed. Six of these EBV-LCL lines were plated in the presence of low concentrations of silvestrol (2-50 nM), and apoptosis (viability assessed by annexin/PI flow cytometry) (FIG. 2A) and proliferation (MTS assay) (FIG. 2B) were evaluated at 24, 72, and 120 hr. Cells were plated at a sufficiently low density so that even after five days there was minimal loss of viability due to nutrient depletion in the untreated control. In FIG. 2A, data are shown as percent annexin-negative and PI-negative cells relative to the time-matched vehicle control. Bars show −/+ standard deviation. […]
# [3] = system: LMP-1; experiment: Immunoblot of LMP-1 in LCL; assay type: cell-based, Epstein-Barr virus
# Procedure: Cells were harvested and lysed as described (Alinari 2011). Following collection of whole cell lysates, equal amounts of protein were resolved by SDS-PAGE and transferred onto a PVDF membrane (Millipore, Billerica, Mass.). Membrane was probed overnight at 4° C. with β-actin, pSTAT1, pSTAT3, STAT1, STAT3, pAkt, Akt (Cell Signaling Technology, Danvers, Mass.), or LMP-1 (DakoCytomation, Carpinteria, Calif.). After incubation with HRP-conjugated secondary antibody (Cell Signaling Technology), protein was detected with SuperSignal West Pico Chemiluminescent Substrate (Pierce, Rockford, Ill.).
# Whole cell protein levels of LMP-1 was evaluated by immunoblot 72 hr after treating with a single dose (10 nM) of silvestrol in seven LCL lines (FIG. 3A). β-actin was included as a loading control. In FIG. 3B, LCL were incubated 24, 72, and 120 hr in the presence of 10 nM silvestrol or vehicle control. Whole cell lysates were immunoblotted for LMP-1. Results are representative of 3 LCL lines. […] Decreases in other latent gene products involved with EBV-driven B cell transformation were observed as well. In FIG. 3D, LCL were incubated as in FIG. 3B and immunoblotted for STAT1, STAT3, AKT and NF-κB p65.
# [4] = system: autologous LCL targets; experiment: Flow cytometry-based cytotoxicity assay (CFSE/7-AAD), effectors against autologous LCL; assay type: cell-based, human
# Procedure: Non-radioactive flow cytometry-based cytotoxicity assays have been described previously (Godoy-Ramirez 2005; Helguera 2011). Co-cultures of PBMC and irradiated LCL were grown in the presence or absence of silvestrol for 14 d and collected. Fresh autologous LCL cells were stained with 200 nM carboxyfluorescein diacetate succinimidyl ester (CFSE) (CellTrace™, Invitrogen) for 15 min at 25° C. prior to being mixed with effectors from the irradiated co-cultures at an effector:target (E:T) ratio of 20:1 for 4 hr at 37° C. After the incubation, cells were stained with 7-aminoactinomycin D (7AAD) (BD Biosciences, San Diego, Calif.) and washed. Cytotoxicity was measured by gating on the CFSE-positive events and measuring the 7AAD-positive cells. (See FIGS. 31 and 32). For antibody-dependent cell-mediated cytotoxicity (ADCC) assays the same technique was used; however, the co-cultured effectors were natural killer (NK) cell-enriched and were incubated in the presence or absence of 5 μg/mL rituximab or herceptin (negative control) (Genentech, Inc., South San Francisco, Calif.) for 4 hr at 37° C.
# Immune cell function was then analyzed as part of the indirect anti-tumor activity of silvestrol. Cytotoxicity assays were performed. To investigate the effect of silvestrol on adaptive immunity, LCL cells were stained with the cell-tracking dye CFSE, then incubated at an effector to target ratio of 20:1 with autologous PBMC that had been cultured in the presence of irradiated LCL, with or without silvestrol, for 14 days. After a 4 hr incubation, cells were stained with the viability dye 7-AAD and washed. Cytotoxic activity against LCL targets was measured by gating on the CFSE positive events and measuring the 7-AAD positive cells (FIGS. 31-32). […] Data are shown relative to the vehicle-only control and are the averages of three independent experiments. Bars show −/+ standard deviation.
# Given that LCL cells were depleted and effector cell cytotoxicity was maintained in non-irradiated co-cultures, whether silvestrol lowers the apoptotic threshold of the LCL tumor target was examined. PBMC were co-cultured with irradiated LCL in the absence of silvestrol for 14 days. These expanded effectors and fresh LCL each were separately incubated with silvestrol or vehicle control for 18 hr and washed. Cells were then combined, and after 4 hr incubation, cytotoxicity assays were performed as above. […] Data are shown relative to the vehicle-only control and are the averages of three independent experiments. Bars show −/+ standard deviation.
smiles,measurement,setting,value
COC(=O)[C@H]1[C@@H](O)[C@@]2(O)c3c(OC)cc(O[C@@H]4O[C@@H]([C@H](O)CO)CO[C@H]4OC)cc3O[C@@]2(c2ccc(OC)cc2)[C@@H]1c1ccccc1 [silvestrol],IC50,[1],< 0.01 µM
same,growth inhibition vs. untreated control,"[2]; 2-50 nM, 24, 72, 120 hr, p<0.0001 averaged over doses and time points",Moderate but significant activity
same,IC50,"[2]; Homo sapiens, Lymphoblastoid cell, six EBV-LCL lines, 72 hr, estimated, read-out: 50% growth inhibitory concentration (IC50)",~0.04 µM
same,LMP1 protein levels,"[3]; 10 nM, 5 days, cells from seven donors (FIG. 3A)",reduced LMP1 protein levels
same,LMP-1 levels over time,"[3]; single 10 nM dose, 24, 72, 120 hr (FIG. 3B)",fall incrementally as a function of time
same,direct killing of autologous EBV+ LCLs by EBV-specific CTLs,[4]; 10 nM (FIG. 42),not adversely affected
same,"cytotoxic activity against autologous LCL maintained, compared to effectors expanded without silvestrol","[4]; effectors expanded 14 days with 10 nM, E:T 20:1, 4 hr",over 70%
same,ability of silvestrol-treated effectors to kill targets vs. untreated effectors,"[4]; effectors incubated 18 hr with silvestrol, p=0.287",no decrease
same,cytotoxic activity of effector populations against autologous EBV+ tumor cells,"[4]; expanded 14 days in 2, 5, 10 nM, 3 donors (FIG. 17)",did not affect cytotoxic activity
same,killing of LCL target cells pretreated with silvestrol vs. untreated targets,"[4]; targets pretreated 18 hr, p<0.0001",more efficiently killed
